Results reported in patent publication US12139458B2, “(2,5-dioxopyrrolidin-1-yl)(phenyl)-acetamide derivatives and their use in the treatment of neurological diseases” (UNIWERSYTET JAGIELLONSKI, priority 2019, dated 2024).
Counter-ions that a name gives are not always drawn.

Key:
[1] = test system: male Swiss albino mice (CD-1); assay: Maximal electroshock seizure test (MES); assay type: in vivo; conditions: screening, 100 mg/kg i.p., 0.5 h, mice; for responders at 100 mg/kg: Mus musculus, ip, read-out: MES: number of mice protected/number of mice tested (converted)
Experimental: (§1) The male Swiss albino mice (CD-1) weighing 18-26 g were used. All procedures were carried out in accordance with applicable Polish and international guidelines on the ethics of animal testing, after obtaining appropriate institutional approval. The substances were administered intraperitoneally (i.p.), in 1% aqueous solution of Tween, as single injections with a volume of 10 ml/kg, 30 minutes before the given test. Screening was performed on groups consisted of 4 mice. The average effective dose (ED50) in given test and toxic dose in the rotarod test (TD50) was estimated based on the results obtained in 3-4 groups of animals consisting of 6 mice. All tests were carried out based on the procedures described in the specialist literature.
In the MES test, the seizures were induced by an electrical stimulus lasting of 0.2 s duration, 500 V voltage and 25 mA intensity. The electrical stimuli was generated using an electric shock generator (Rodent shocker, Type 221, Hugo Sachs Elektronik, Germany) and delivered to the animal using electrodes placed on the auricles. The study was conducted 30 minutes after intraperitoneal administration of the compounds at various doses. During the experiment, the number of animals that experienced a seizure episode in the form of tonic extension of the hind limbs was counted (Kamiński, K.; Rapacz, A.; Łuszczki, J. J.; Latacz, G.; Obniska, J.; Kieć-Kononowicz, K.; Filipek, B. Bioorg. Med. Chem. 2015, 23, 2548-2561; Castel-Branco, M. M.; Alves, G. L.; Figueiredo, I. V.; Falcão, A. C.; Caramona, M. M. Methods Find. Exp. Clin. Pharmacol. 2009, 31, 101-106).
(§2) To perform a statistical evaluation of the results, one-way ANOVA variance analysis and Dunnett's post hoc test (multiple comparison test) were used. The value at the significance level p<0.05 was considered statistically significant.

[2] = test system: male Swiss albino mice (CD-1); assay: Subcutaneous pentylenetetrazole seizure test (scPTZ); assay type: in vivo; conditions: screening, 100 mg/kg i.p., 0.5 h, mice; for responders at 100 mg/kg: Mus musculus, ip, read-out: scPTZ: number of mice protected/number of mice tested (converted)
Experimental: as §1
In the scPTZ test, seizures were induced by subcutaneous administration of pentylenetetrazole (PTZ) at a dose of 100 mg/kg. This caused clonic seizures with accompanying loss of the righting reflex. Test compounds were administered 30 minutes before the experiment. After PTZ administration, the animals were placed individually in transparent containers and observed for a period of 30 minutes for the occurrence of clonic seizures. During this time, the latency of the first onset of clonic seizures, defined as clonus of the whole body lasting at least 3 seconds with loss of the righting reflex and the number of seizure episodes during the test were noted and compared with control group. The absence of clonic convulsions within the observed time period was interpreted as the compound's ability to protect against PTZ-induced seizures (Ferreri, G.; Chimirri, A.; Russo, E.; Gitto, R.; Gareri, P.; De Sarro, A.; De Sarro, G. Pharmacol. Biochem. Behav. 2004, 77, 85-94; Łączkowski, K.; Sałat, K.; Misiura, K.; Podkowa, A.; Malikowska, N. J. Enzyme Inhib. Med. Chem. 2016, 31, 1576-82).
as §2

[3] = test system: male Swiss albino mice (CD-1); assay: Psychomotor seizure test 6 Hz (32 mA); assay type: in vivo; conditions: screening, 100 mg/kg i.p., 0.5 h, mice; for responders at 100 mg/kg: Mus musculus, ip, read-out: 6 Hz (32 mA): number of mice protected/number of mice tested (converted)
Experimental: as §1
In the 6 Hz test, seizures were induced by an electric stimulus of 32 mA and/or 44 mA and a frequency of 6 pulses per second. An electrical pulse was generated using an electric shock generator (ECT Unit 57800; Ugo Basile, Gemonio, Italy) and delivered to the animal using ocular electrodes. Before starting the test, the eye surface was gently moistened with a solution of local anesthetic (1% lidocaine solution). The study was conducted 30 minutes after intraperitoneal administration of the compounds at various doses. An electrical pulse was delivered continuously for a period of 3 seconds, followed by observation of the animal for a period of 10 seconds. During this time, immobility or stun associated with rearing, forelimb clonus, twitching of the vibrissae and Straub's tail were observed. These symptoms persist throughout the observation period, indicating the occurrence of psychomotor seizures in mice. Mice resuming normal behavior within 10 s after stimulation were considered as protected (Barton, M. E.; Klein, B. D.; Wolf, H. H.; White, H. S. Epilepsy Res. 2001, 47, 217-227; Wojda, E.; Wlaź, A.; Patsalos, P. N.; Łuszczki, J. J. Epilepsy Res. 2009, 86, 163-174).
as §2

| SMILES | melting point [°C] | responders at 100 mg/kg [1] [%] | scPTZ: number of mice protected/number of mice tested [2] | responders at 100 mg/kg [3] [%] | responders at 100 mg/kg [2] [%] | 6 Hz (32 mA): number of mice protected/number of mice tested [3] | MES: number of mice protected/number of mice tested [1] |
| --- | --- | --- | --- | --- | --- | --- | --- |
| CN(C)C1CC(=O)N(C(C(=O)N2CCN(c3cccc(C(F)(F)F)c3)CC2)c2ccccc2)C1=O.Cl (stereo not shown) [Compound 49, 3-(Dimethylamino)-1-(2-oxo-1-phenyl-2-(4-(3-(trifluoromethyl)phenyl)-piperazin-1-yl)ethyl)pyrrolidine-2,5-dione hydrochloride] | 157.8 to 159.2 | 100 | ¾ | 100 | – | – | – |
| CCN(CC)C1CC(=O)N(C(C(=O)N2CCN(c3cccc(C(F)(F)F)c3)CC2)c2ccccc2)C1=O.Cl (stereo not shown) [Compound 50, 3-(Diethylamino)-1-(2-oxo-1-phenyl-2-(4-(3-(trifluoromethyl)phenyl)piperazin-1-yl)ethyl)pyrrolidine-2,5-dione hydrochloride] | 142.2 to 143.1 | 100 | – | 100 | 50 | – | – |
| O=C(C(Cc1ccccc1)N1C(=O)CCC1=O)N1CCN(c2ccccc2)CC1 (stereo not shown) [Compound 21, 1-(1-Oxo-3-phenyl-1-(4-phenylpiperazin-1-yl)prop-2-yl)pyrrolidine-2,5-dione] | 121.7 to 123.2 | – | – | – | – | – | – |
| O=C(C(Cc1ccccc1)N1C(=O)CCC1=O)N1CCN(c2cccc(-c3ccccc3)c2)CC1 (stereo not shown) [Compound 24, 1-(1-(4-([1,1′-Biphenyl]-3-yl)piperazin-1-yl)-1-oxo-3-phenylpropan-2-yl)pyrrolidine-2,5-dione] | 119.1 to 120 | – | – | – | – | – | – |
| O=C(C(c1ccccc1)N1C(=O)CCC1=O)N1CCN(c2cc(C(F)(F)F)cc(C(F)(F)F)c2)CC1 (racemic) [Compound 8, 1-(2-(4-(3,5-Bis(trifluoromethyl)phenyl)piperazin-1-yl)-2-oxo-1-phenylethyl)pyrrolidine-2,5-dione] | 228.1 to 229.4 | 100 | – | – | 100 | ¾ | – |
| O=C(C(c1ccccc1)N1C(=O)CCC1=O)N1CCN(c2ccc3ccccc3c2)CC1 (racemic) [Compound 15, 1-(2-(4-(Naphth-2-yl)piperazin-1-yl)-2-oxo-1-phenylethyl)pyrrolidine-2,5-dione] | 197.1 to 198.5 | 50 | ¾ | – | – | ¾ | – |
| O=C(C(c1ccccc1)N1C(=O)CCC1=O)N1CCN(c2ccc3sccc3c2)CC1 (racemic) [Compound 16, 1-(2-(4-(Benzo[b]thiophen-5-yl)piperazin-1-yl)-2-oxo-1-phenylethyl)pyrrolidine-2,5-dione] | 164.1 to 165.3 | – | ¾ | – | – | ¾ | ¾ |
| O=C(C(Cc1ccccc1)N1C(=O)CCC1=O)N1CCN(c2cccc(OC(F)(F)F)c2)CC1 (stereo not shown) [Compound 25, 1-(1-Oxo-3-phenyl-1-(4-(3-(trifluoromethoxy)phenyl)piperazin-1-yl)propan-2-yl)pyrrolidine-2,5-dione] | 104.4 to 105.5 | – | – | – | – | – | – |
| O=C(C(c1ccccc1)N1C(=O)CCC1=O)N1CCC(c2cccc(Cl)c2)CC1 (racemic) [Compound 18, 1-(2-(4-(3-Chlorophenyl)piperidin-1-yl)-2-oxo-1-phenylethyl)pyrrolidine-2,5-dione] | 111.8 to 113.4 | – | ¾ | – | – | ¾ | ¾ |
| CNC1CC(=O)N(C(C(=O)N2CCN(c3cccc(C(F)(F)F)c3)CC2)c2ccccc2)C1=O.Cl (stereo not shown) [Compound 48, 3-(Methylamino)-1-(2-oxo-1-phenyl-2-(4-(3-(trifluoromethyl)phenyl)piperazin-1-yl)ethyl)pyrrolidine-2,5-dione hydrochloride] | 161.2 to 163.4 | 100 | ¾ | 100 | – | – | – |
| O=C(C(Cc1ccccc1)N1C(=O)CCC1=O)N1CCN(c2cccc(C(F)(F)F)c2)CC1 (stereo not shown) (as salt: salt) [Example 23, 1-(1-Oxo-3-phenyl-1-(4-(3-(trifluoromethyl)phenyl)piperazin-1-yl)propan-2-yl)pyrrolidine-2,5-dione] | 126.1 to 127.2 | – | – | – | – | – | – |
| O=C(C(c1ccccc1)N1C(=O)CCC1=O)N1CCC(c2cccc(OC(F)(F)F)c2)CC1 (racemic) [Compound 20, 1-(2-Oxo-1-phenyl-2-(4-(3-(trifluoromethoxy)phenyl)piperidin-1-yl)ethyl)pyrrolidine-2,5-dione] | 112.1 to 113.2 | 100 | – | – | 50 | ¾ | – |
| O=C(C(Cc1ccccc1)N1C(=O)CCC1=O)N1CCN(c2cccc(Cl)c2)CC1 (stereo not shown) [Compound 22, 1-(1-(4-(3-Chlorophenyl)piperazin-1-yl)-1-oxo-3-phenylpropan-2-yl)pyrrolidine-2,5-dione] | 114.3 to 116.2 | – | – | – | – | – | – |
| O=C(C(c1ccccc1)N1C(=O)CCC1=O)N1CCN(c2ccc(C(F)(F)F)cc2)CC1 (racemic) [Compound 7, 1-(2-Oxo-1-phenyl-2-(4-(4-(trifluoromethyl)phenyl)piperazin-1-yl)ethyl)pyrrolidine-2,5-dione] | 173.2 to 174.3 | – | ¾ | – | – | ¾ | ¾ |
| O=C(C(c1ccccc1)N1C(=O)CCC1=O)N1CCN(c2ccc(OC(F)(F)F)cc2)CC1 (racemic) [Compound 11, 1-(2-Oxo-1-phenyl-2-(4-(4-(trifluoromethoxy)phenyl)piperazin-1-yl)ethyl)pyrrolidine-2,5-dione] | 102.3 to 103.5 | – | – | – | 50 | ¾ | ¾ |
| O=C([C@@H](c1ccccc1)N1C(=O)CCC1=O)N1CCN(c2cccc(SC(F)(F)F)c2)CC1 [(R)-12] | – | – | ¼ | – | – | 4/4 | 4/4 |
| O=C(C(c1ccccc1)N1C(=O)CCC1=O)N1CCN(c2ccc3oncc3c2)CC1 (stereo not shown) [Compound 17, 1-(2-(4-(1,2-Benzoxazol-5-il)piperazin-1-yl)-2-oxo-1-phenylethyl)pyrrolidine-2,5-dione] | – | – | ¾ | – | – | ¾ | ¾ |
| O=C([C@@H](c1ccccc1)N1C(=O)CCC1=O)N1CCN(c2cc(Cl)cc(Cl)c2)CC1 [(R)-4, (R)-1-(2-(4-(3,5-dichlorophenyl)piperazin-1-yl)-2-oxo-1-phenylethyl)pyrrolidine-2,5-dione] | 174.3 to 175.5 | 100 | – | 100 | 50 | – | – |
